The text below walks through data of ChEMBL document CHEMBL1149794, “3D-QSAR and docking studies of aminopyridine carboxamide inhibitors of c-Jun N-terminal kinase-1” (Eur J Med Chem, 2008).

The term IC50 denotes the concentration needed to halve the response being measured. Low values mean greater potency, high ones weaker potency.

The assay addresses Mitogen-activated protein kinase 8 (Homo sapiens, UniProt P45983). Kind of assay: Inhibition of JNK1.

Chain of Mitogen-activated protein kinase 8 (P45983 whole entry): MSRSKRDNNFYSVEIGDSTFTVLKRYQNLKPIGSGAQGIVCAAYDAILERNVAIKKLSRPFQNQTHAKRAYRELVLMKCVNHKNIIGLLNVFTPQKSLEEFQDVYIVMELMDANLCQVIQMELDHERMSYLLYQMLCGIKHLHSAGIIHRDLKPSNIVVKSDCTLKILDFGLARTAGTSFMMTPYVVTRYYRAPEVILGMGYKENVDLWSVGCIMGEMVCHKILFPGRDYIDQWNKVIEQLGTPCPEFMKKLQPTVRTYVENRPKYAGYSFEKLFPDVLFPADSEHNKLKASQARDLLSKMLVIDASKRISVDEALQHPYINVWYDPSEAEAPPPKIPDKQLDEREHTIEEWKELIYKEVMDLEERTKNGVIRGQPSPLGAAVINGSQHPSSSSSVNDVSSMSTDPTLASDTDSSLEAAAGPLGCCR

On to `C[C@@H](CO)Nc1nc(C(=O)NCc2ccc(S(C)(=O)=O)cc2)cc(N)c1C#N`, for which the IC50 was 180 nM. Take `C[C@@H](CO)Oc1nc(C(=O)NCc2ccc(S(C)(=O)=O)cc2)cc(N)c1C#N`: the IC50 was 22 nM. The figure for `CS(=O)(=O)c1ccc(CNC(=O)c2cc(N)c(C#N)c(OCCC(=O)O)n2)cc1` is 1640 nM; for `CC(C)[C@H](CO)Nc1nc(C(=O)NCc2ccc(S(C)(=O)=O)cc2)cc(N)c1C#N` it is 1500 nM.
